The values below come from patent US7592140B2, “2′, 5′-oligoadenylate phosphodiesterase” (priority 2002, dated 2009).

The test system of series [1] is Vaccinia virus WR strain. Format: cell-based.
Series [2] can be described thus: Solubility (physicochemical properties).
Series [3] deals with T1, recombinant human 2′-PDE (Homo sapiens, UniProt Q6L8Q7).
T1 sequence (Q6L8Q7 43-609): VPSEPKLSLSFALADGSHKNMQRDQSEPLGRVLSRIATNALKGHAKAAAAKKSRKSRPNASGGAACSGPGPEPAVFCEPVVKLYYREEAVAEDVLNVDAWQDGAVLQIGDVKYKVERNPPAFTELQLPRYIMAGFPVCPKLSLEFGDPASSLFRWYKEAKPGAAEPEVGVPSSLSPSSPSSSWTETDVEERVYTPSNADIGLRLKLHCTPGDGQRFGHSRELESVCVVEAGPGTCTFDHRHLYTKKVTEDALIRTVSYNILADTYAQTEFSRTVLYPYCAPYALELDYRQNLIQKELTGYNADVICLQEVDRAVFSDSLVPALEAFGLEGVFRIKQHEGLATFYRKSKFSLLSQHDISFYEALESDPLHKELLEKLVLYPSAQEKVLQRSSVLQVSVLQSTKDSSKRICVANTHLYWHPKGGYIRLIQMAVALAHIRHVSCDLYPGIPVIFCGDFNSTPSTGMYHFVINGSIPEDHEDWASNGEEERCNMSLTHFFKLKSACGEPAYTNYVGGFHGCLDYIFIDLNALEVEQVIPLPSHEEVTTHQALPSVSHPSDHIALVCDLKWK
As to the kind of experiment: Inhibition of recombinant human 2′-PDE activity (HPLC measurement of substrate reduction). Format: biochemical. The following applies: substrate 0.75 mM adenylyl(2′-5′)adenosine, 37° C. for 60 min; read-out: 50% inhibition concentration (converted). Also on record: His6 (histidine hexamer) (C); made in house; nickel-chelate partial purification. As for the experimental part:
To 10 μl of the partially purified human 2′-PDE enzyme solution obtained in part 1) of Production Example 1, were added 80 μl of Buffer 7 containing 0.75 mM adenylyl(2′-5′)adenosine as the substrate and 10 μl of a solution of the A-74528 compound dissolved in dimethyl sulphoxide. Then the mixture was incubated at 37° C. for 60 min. and the enzyme was inactivated by addition of 200 μl of methanol. Ten μl of the sample obtained, after insoluble matter was removed using a 0.45 μm filter, was subjected to a reversed phase column (Inertsil ODS-2, 5 μm: diameter 4.6 mm×150 mm: manufactured by GL Science), equilibrated beforehand with Buffer 17 [50 mM ammonium acetate (pH 5.0), 5% (V/V) acetonitrile]. Liquid chromatography was performed at a flow rate of 1 ml/min. at 40° C., and the eluate was monitored at a wavelength of 260 nm. The elution was conducted as an isocratic elution. Using a standard material for the substrate, a conversion formula for obtaining the substrate amount based on the peak area was prepared. Based on the conversion formula, the reduction in the amount of the substrate was calculated from the substrate peak area when the diluted enzyme solution was added, which was regarded as the amount of the enzyme reaction product.

The subject of series [4] is 2′-PDE purified by Johnston et al. As to conditions: value obtained by Johnston et al.; activity with A2′pA defined as 1; cited from earlier work.
For series [5], the target named is T1, recombinant human 2′-PDE. Put plainly: Substrate specificity of recombinant human 2′-PDE (HPLC). Format: biochemical. Also on record: His6 (histidine hexamer) (C); made in house; host or cells: COS-1 cells (monkey kidney), transient transfection with pEF6/KUBO#002/11-1; nickel-chelate partial purification. As to conditions: relative to adenylyl(2′-5′)adenosine defined as one; 150 μM substrate, 37° C. for 60 min.

For series [6], the system named is PC-3 cells. Put plainly: Cell viability of PC-3 cells (Alamar Blue). It is filed as cell-based, human. The following applies: host PC-3 cells, cultured for 3 days. On the technique in general: Alamar Blue is a resazurin reagent that responds to reducing activity.
For series [7], the system named is 2′-PDE stable expression strains #6 and #10. Put plainly: Cell viability of 2′-PDE stable expression strains of PC-3 (Alamar Blue). Format: cell-based, human. The following applies: cultured for 3 days.

`CC1c2c(O)cc(O)c3c2C2C(CC(O)=C4C(=O)c5c(O)cc(O)cc5C(C3=O)C42Cc2cc(O)cc(=O)o2)C1O` (stereo not shown) [A-74528]: in series [1], the “effect on viral replication-suppression activity of interferon-α” value is given as “enhanced the viral replication-suppression activity of interferon-α” and the viral replication-suppression activity entry is “exhibited a viral replication-suppression activity in a concentration-dependent manner”. The solubility result in series [2] was “soluble in methanol and dimethyl sulphoxide”. Moreover, the IC50 in series [3] was 60.7 µM.

Regarding `Nc1ncnc2c1ncn2[C@@H]1O[C@H](COP(=O)(O)O[C@H]2[C@@H](O)[C@H](n3cnc4c(N)ncnc43)O[C@@H]2COP(=O)(O)O[C@H]2[C@@H](O)[C@H](n3cnc4c(N)ncnc43)O[C@@H]2CO)[C@@H](O)[C@H]1O` [adenylyl(3′-5′)adenylyl(3′-5′)adenosine], the relative cleavage efficiency was 163 in series [4] and 1.1 in series [5].

As for interferon-α, the “suppression of cell viability” value in series [6] is given as “suppressed the viability of PC-3 cells in a concentration-dependent manner”. For the same molecule, in series [7], the “cell proliferation suppression activity compared with host PC-3 cells” value is listed as “attenuated”.

B1: interferon-γ (protein, UniProt P01579 24-161, looked up)
Interferon gamma: QDPYVKEAENLKKYFNAGHSDVADNGTLFLGILKNWKEESDRKIMQSQIVSFYFKLFKNFKDDQSIQKSVETIKEDMNVKFFNSNKKKRDDFEKLTNYSVTDLNVQRKAIHELIQVMAELSPAAKTGKRKRSQMLFRG
As for B1, the “suppression of cell viability” value in series [6] is listed as “suppressed the viability of PC-3 cells in a concentration-dependent manner”. Moreover, in series [7], the “cell proliferation suppression activity compared with host PC-3 cells” value was “attenuated”.
